One assay concerns the target T1, mouse TGR5 receptor (Mus musculus, UniProt Q80SS6).
T1 construct: expressed in transfected cells; host or cells: HEK293-EBNA (293 c18, ATCC CRL10852), Hygromycin B selection
T1 sequence (Q80SS6 1-329): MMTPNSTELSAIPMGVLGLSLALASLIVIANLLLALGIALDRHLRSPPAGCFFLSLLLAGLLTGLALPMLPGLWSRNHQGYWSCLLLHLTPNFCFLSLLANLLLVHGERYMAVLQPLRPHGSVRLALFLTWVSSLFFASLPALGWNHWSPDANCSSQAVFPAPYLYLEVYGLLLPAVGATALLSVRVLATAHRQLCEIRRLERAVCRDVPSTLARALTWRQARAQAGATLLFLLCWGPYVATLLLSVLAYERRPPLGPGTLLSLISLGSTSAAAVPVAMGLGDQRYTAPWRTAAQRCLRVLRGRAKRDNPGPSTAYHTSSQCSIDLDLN
Description: Mouse TGR5 cAMP production assay (HTRF, Cisbio cAMP HiRange). It is filed as cell-based. The following applies: HEK293-EBNA cells overexpressing mouse TGR5, HTRF cAMP HiRange; coded A-D. The text has this: Mouse TGR5 cAMP Production Assay
We evaluated compounds of the present invention for their ability to induce cAMP production in HEK-EBNA cells overexpressing the mouse TGR5 receptor. Human embryonic kidney cells (HEK293-EBNA) stably expressing mouse TGR5 receptor were established using the following procedure. Specifically, a commercially-obtained gene encoding mouse TGR5 (accession number BC116914) from Thermo Scientific (Waltham, Mass.) was cloned into an episomal expression vector. The resulting expression plasmid was then transfected into 293 c18 (ATCC® CRL10852™) cells, which express the Epstein-Barr virus nuclear antigen EBNA1 and can support the replication of episomal vectors. Selection for the plasmid was maintained with Hygromycin B. Cells were cultured and maintained in DMEM (Sigma; cat #6429) supplemented with 10% Fetal Bovine Serum, 1% penicillin/streptomycin, 2 mM L-alanine L-glutamine (GlutaMax), and 250 μg/mL Hygromycin.
2. HTRF cAMP Production Assay
In this second cAMP production assay, the cAMP production was measured in 384-well low volume plates (Greiner; cat #784075) using the Cisbio™ cAMP HiRange HTRF Assay Kit (Cisbio) according to the manufacturer's protocol.
Briefly, compounds were initially diluted in 100% DMSO (12-point serial dilution by half logs) in a 96-well plate and then were further diluted 1:50 in PBS containing 10 mM HEPES. 5 μL were transferred to the 384-well assay plate in duplicate. HEK293-EBNA cells stably overexpressing mouse TGR5 were harvested using non-enzymatic cell dissociation buffer (Sigma), spun down, then resuspended in serum-free DMEM with 500 μM IBMX at a density of 500,000 cells/mL. 5 μL of cell suspension was transferred to each well of the 384-well assay plate already containing compound. The plate was covered and incubated at room temperature for 1 hour. The d2-cAMP and anti-cAMP Ab-cryptate stock solutions were prepared as per kit instructions. Then 5 μL of each conjugate (d2 and cryptate) were added to each well of the assay plate. The plate was covered and incubated at room temperature for 1 hour. The plate was read on an Envision™ plate reader (Perkin Elmer).
(§1) In Table 33, EC50 values for both human and mouse cells were determined according to the TGR5 cAMP assays described above.
In general terms: cAMP levels reflect the balance of adenylyl cyclase and phosphodiesterase activity.

The target in another assay is T2, human TGR5 receptor (Homo sapiens, UniProt Q8TDU6).
T2 construct: host or cells: CHO-K1 (hTGR5-CHO cells)
T2 sequence (Q8TDU6 1-330): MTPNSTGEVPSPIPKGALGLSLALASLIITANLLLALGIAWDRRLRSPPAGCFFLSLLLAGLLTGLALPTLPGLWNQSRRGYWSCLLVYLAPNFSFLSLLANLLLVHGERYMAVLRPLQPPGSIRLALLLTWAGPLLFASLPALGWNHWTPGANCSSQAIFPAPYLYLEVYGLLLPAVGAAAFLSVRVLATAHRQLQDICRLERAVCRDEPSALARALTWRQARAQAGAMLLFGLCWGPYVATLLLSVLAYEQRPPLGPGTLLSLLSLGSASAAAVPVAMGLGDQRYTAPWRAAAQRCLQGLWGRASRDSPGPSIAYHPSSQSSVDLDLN
Description: Human TGR5 cAMP production assay. Type of assay: cell-based. As to conditions: human TGR5, luminescent cAMP assay; coded A-D; read-out: Human TGR5 Lum. cAMP Activity (EC50). Here is the method: Human TGR5 cAMP Production Assay
We evaluated the Compounds of the present invention for their ability to induce cAMP production using CHO-K1 cells overexpressing the human TGR5 receptor. CHO-K1 cells stably expressing human TGR5 receptor (accession number NM_001077194.1 (hTGR5) (i.e., hTGR5-CHO cells) were purchased from DiscoveRx Corporation (Fremont, Calif.). hTGR5-CHO cells were grown in Ham's F-12 media supplemented with 10% Fetal Bovine Serum, 1% Penicillin-Streptomycin, 2 mM L-Alanine L-Glutamine (Glutamax), and 800 μg/mL Geneticin selection. The cAMP production assay was performed using DiscoveRx's cAMP XS+ kit (Catalog No. 90-0075XL) following the manufacturer's recommended protocol. Briefly, hTGR5-CHO cells were harvested using non-enzymatic cell dissociation buffer (Sigma-Aldrich, St. Louis, Mo.) and 1×10^6 cells were combined in Phosphate-Buffered Saline (PBS) to a final volume of 496 μL to which 4 μL of 125 mM IBMX (Sigma-Aldrich, St. Louis, Mo.) was added. 500 μL of cAMP antibody solution was added to the harvested cells and incubated at room temperature for 20 min.
Test compounds were serially diluted (half-log dilutions) in DMSO and then further diluted 1:50 in PBS, 10 mM HEPES buffer. 2 μL of serially diluted compound was added to a 384-well low volume plate (Greiner; cat #784075) and centrifuged briefly. 2 μL of the cell/cAMP antibody mixture was then added to each compound-containing well and allowed to incubate at room temperature for one hour. Following incubation, the XS+ kits' ED/Lysis/CL Substrate Working Solution was prepared following the manufacturer's recommended protocol and 4 μL was added to each well of the plate. The plate was then incubated for one hour at room temperature. Following incubation, 4 μL of Enzyme Acceptor reagent was added to the plate and allowed to incubate overnight at room temperature. Luminescent signal was then detected using the Viewlux instrument (Perkin-Elmer, Waltham, Mass.).
as §1

pEC50: −log10 of the molar value. Where only a bound is given, the exact number is not on record here.

On to `Cc1cnccc1-c1cccc([C@H]2C[C@@H](C(=O)O)CCN2S(=O)(=O)c2ccccc2C(F)(F)F)c1` (relative stereo) [Compound 55, cis-2-(3-(3-Methylpyridin-4-yl)phenyl)-1-((2-(trifluoromethyl)phenyl)sulfonyl)piperidine-4-carboxylic acid], for which the pEC50 on mouse TGR5 receptor and at human TGR5 receptor was 6.00 to 7.00 each time.

For `Cc1cnccc1-c1cccc(C(CCC(=O)O)NS(=O)(=O)c2ccccc2C(F)(F)F)c1` (centres unmarked) [Compound 19, 4-(3-(3-methylpyridin-4-yl)phenyl)-4-(2-(trifluoromethyl)phenylsulfonamido)butanoic acid], the pEC50 – broadly, the negative decadic logarithm of the EC50, by convention in mol/L – on mouse TGR5 receptor was 6.00 to 7.00; at human TGR5 receptor it was 4.52 to 6.00.

Turning to `COc1cnccc1-c1cccc(C(CO)NS(=O)(=O)c2cccc(C(F)(F)F)c2)c1` (racemic) [Compound 17, (+/−) N-(2-hydroxy-1-(3-(3-methoxypyridin-4-yl)phenyl)ethyl)-3-(trifluoromethyl)benzenesulfonamide], the pEC50 on mouse TGR5 receptor is 4.52 to 6.00; on human TGR5 receptor, 6.00 to 7.00.

Take `Cc1cnccc1-c1cccc(C2CCCCN2S(=O)(=O)c2ccccc2C(F)(F)F)c1` (centres unmarked) [Compound 54, 3-methyl-4-(3-(1-((2-(trifluoromethyl)phenyl)sulfonyl)piperidin-2-yl)phenyl)pyridine]: the pEC50 at mouse TGR5 receptor was 6.00 to 7.00; at human TGR5 receptor it was above 7.00.

With `COc1cnccc1-c1cccc(C(C)(C)NS(=O)(=O)c2ccc(C#N)cc2Cl)c1` [Compound 2BN], the pEC50 on mouse TGR5 receptor was 4.52 to 6.00; at human TGR5 receptor, 6.00 to 7.00.

As for `CN(C)C(=O)c1cnccc1-c1cccc(C(C)(C)NS(=O)(=O)c2ccccc2C(F)(F)F)c1` [Compound 11, N,N-dimethyl-4-(3-(2-(2-(trifluoromethyl)phenylsulfonamido)propan-2-yl)phenyl)nicotinamide], the pEC50 on mouse TGR5 receptor and at human TGR5 receptor was 4.52 to 6.00 in each case.

`Cc1c(Cl)cccc1S(=O)(=O)N1CCN(C(=O)CCC(=O)O)CC1c1cccc(-c2ccncc2Cl)c1` (centres unmarked) [Compound 46AG, 4-(4-((3-chloro-2-methylphenyl)sulfonyl)-3-(3-(3-chloropyridin-4-yl)phenyl)piperazin-1-yl)-4-oxobutanoic acid]: the pEC50 on mouse TGR5 receptor was above 7.00; at human TGR5 receptor it was 6.00 to 7.00.

Consider `Cc1cnccc1-c1cccc([C@H](C)N(CCCCC(=O)NCCOCCNC(=O)CS(=O)(=O)O)S(=O)(=O)c2cccc(Cl)c2C)c1` [Compound 31, (S)-15-((3-chloro-2-methylphenyl)sulfonyl)-16-(3-(3-methylpyridin-4-yl)phenyl)-2,10-dioxo-6-oxa-3,9,15-triazaheptadecane-1-sulfonic acid], for which the pEC50 on mouse TGR5 receptor and on human TGR5 receptor was above 7.00 in each case.

Consider `Cc1cnccc1-c1cccc([C@H](C)N(CCC(=O)NCCS(=O)(=O)O)S(=O)(=O)c2cccc(Cl)c2C)c1` [Compound 20BV, (S)-2-(3-(3-chloro-2-methyl-N-(1-(3-(3-methylpyridin-4-yl)phenyl)ethyl)phenylsulfonamido)propanamido)ethanesulfonic acid], for which the figures for the pEC50 on mouse TGR5 receptor and on human TGR5 receptor were above 7.00 and 6.00 to 7.00, respectively.

Take `Cc1cnccc1-c1cccc([C@H](C)N(CCCC(N)=O)S(=O)(=O)c2cccc(Cl)c2C)c1` [Compound 20AY, (S)-4-(3-Chloro-2-methyl-N-(1-(3-(3-methylpyridin-4-yl)phenyl)ethyl)phenylsulfonamido)butanamide]: the pEC50 on mouse TGR5 receptor is 6.00 to 7.00; on human TGR5 receptor it was above 7.00.

`CCc1cnccc1-c1cccc([C@H](C)N(CCCC(=O)NCS(=O)(=O)O)S(=O)(=O)c2ccccc2C(F)(F)F)c1` [Compound 20BE, (S)-(4-(N-(1-(3-(3-ethylpyridin-4-yl)phenyl)ethyl)-2-(trifluoromethyl)phenylsulfonamido)butanamido)methanesulfonic acid]: the pEC50 on mouse TGR5 receptor and at human TGR5 receptor was above 7.00 in each case.

Turning to `Cc1cnccc1-c1cccc([C@H](C)N(CCCCO)S(=O)(=O)c2cccc(Cl)c2C)c1` [Compound 39, (S)-3-chloro-N-(4-hydroxybutyl)-2-methyl-N-(1-(3-(3-methylpyridin-4-yl)phenyl)ethyl)Benzenesulfonamide], the pEC50 at mouse TGR5 receptor and on human TGR5 receptor was above 7.00 throughout.

With `Cc1cnccc1-c1cccc([C@H](C)N(CCCC(=O)NCCC(=O)NCC(=O)O)S(=O)(=O)c2cccc(Cl)c2C)c1` [Compound 21AM, (S)-2-(3-(4-(3-chloro-2-methyl-N-(1-(3-(3-methylpyridin-4-yl)phenyl)ethyl)phenylsulfonamido)butanamido)propanamido)acetic acid], the values for the pEC50 at mouse TGR5 receptor and at human TGR5 receptor were 6.00 to 7.00 and above 7.00, respectively.

In the case of `Cc1cnccc1-c1cccc(C(C)N(CCNc2c(NCS(=O)(=O)O)c(=O)c2=O)S(=O)(=O)c2cccc(Cl)c2C)c1` (centres unmarked) [Compound 32, 2-((2-((2-(3-chloro-2-methyl-N-(1-(3-(3-methylpyridin-4-yl)phenyl)ethyl)phenylsulfonamido)ethyl)amino)-3,4-dioxocyclobut-1-en-1-yl)amino)methanesulfonic acid], the pEC50 on mouse TGR5 receptor and at human TGR5 receptor was 4.52 to 6.00 each time.

For the compound `Cc1cnccc1-c1cccc([C@H](C)N(CCCCNC(=O)NCCS(=O)(=O)O)S(=O)(=O)c2ccccc2C(F)(F)F)c1` [Compound 28AB, (S)-2-(3-(4-(N-(1-(3-(3-methylpyridin-4-yl)phenyl)ethyl)-2-(trifluoromethyl)phenylsulfonamido)butyl)ureido)ethanesulfonic acid], the values for the pEC50 on mouse TGR5 receptor and at human TGR5 receptor were 6.00 to 7.00 and above 7.00, respectively.

Take `Cc1cnccc1-c1cccc([C@H](C)N(CCCC(=O)NCCNC(=O)CS(=O)(=O)O)S(=O)(=O)c2ccccc2C(F)(F)F)c1` [Compound 31AE, (S)-2-((2-(4-(N-(1-(3-(3-methylpyridin-4-yl)phenyl)ethyl)-2-(trifluoromethyl)phenylsulfonamido)butanamido)ethyl)amino)-2-oxoethanesulfonic acid]: the pEC50 at mouse TGR5 receptor was 6.00 to 7.00; at human TGR5 receptor, above 7.00.

(Values after patent publication US11236055B2 (Venenum Biodesign, LLC, priority 2016, dated 2022).)
